The text below walks through data of US20240360146A1, “BRUTON'S TYROSINE KINASE AND MUTANT DEGRADER, COMPOSITION AND APPLICATION THEREOF” (HANGZHOU HEALZEN THERAPEUTICS CO., LTD., priority 2021, published 2024).

SMILES strings stand for the structures. Where only a bound is given, the exact number is not on record here.

T1 sequence (Q06187 whole entry): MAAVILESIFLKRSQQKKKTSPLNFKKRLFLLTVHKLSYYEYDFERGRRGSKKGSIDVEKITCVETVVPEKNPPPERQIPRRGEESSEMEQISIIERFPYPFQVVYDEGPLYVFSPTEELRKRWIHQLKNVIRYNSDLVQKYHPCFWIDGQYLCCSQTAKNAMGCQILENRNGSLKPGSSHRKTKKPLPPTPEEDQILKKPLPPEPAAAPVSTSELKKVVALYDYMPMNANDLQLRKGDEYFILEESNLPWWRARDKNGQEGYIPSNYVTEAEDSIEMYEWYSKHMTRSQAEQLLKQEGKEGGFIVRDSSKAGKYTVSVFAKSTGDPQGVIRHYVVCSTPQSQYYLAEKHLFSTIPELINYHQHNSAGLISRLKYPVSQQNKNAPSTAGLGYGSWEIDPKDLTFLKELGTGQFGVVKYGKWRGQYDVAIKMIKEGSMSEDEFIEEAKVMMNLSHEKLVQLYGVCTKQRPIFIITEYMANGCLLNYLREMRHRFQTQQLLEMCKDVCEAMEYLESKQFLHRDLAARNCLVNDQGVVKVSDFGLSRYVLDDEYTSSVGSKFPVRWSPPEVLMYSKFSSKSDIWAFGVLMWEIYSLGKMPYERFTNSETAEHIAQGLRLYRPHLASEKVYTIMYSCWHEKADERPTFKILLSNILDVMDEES

This experiment concerns the target T1, BTK (Homo sapiens, UniProt Q06187).
T1 construct: endogenous in cells; host or cells: Mino cells
Description: BTK degradation activity test in Mino cells. The following applies: 16 h incubation, Western blot or Elisa. Type of experiment: cell-based. The procedure:
Mino cell line cells were seeded at 500,000 to 1,000,000 cells/well in a 6-well plate. The compounds were diluted to different concentrations and added to the plate, and after 16 h of incubation, cells were harvested. After lysing the cells, the total protein concentration in each well was determined using the BCA method. The amount of BTK was determined using Western blot or Elisa method. The amount of undegraded BTK protein at each drug concentration was compared with the amount of BTK protein in the blank control group to calculate the degradation rate. The degradation curve was drawn based on the degradation rate at each concentration, and the half degradation concentration (DC50) was calculated by fitting.
In turn, `CC1(c2ccc(Nc3nc(N4CCCC(N5CCN(C6CCCC6)C5=O)C4)cnc3C(N)=O)cc2)CCN(C2CN(c3ccc4c(c3)C(=O)N(C3CCC(=O)NC3=O)C4=O)C2)CC1` (centres unmarked) [Compound 001, 5-(3-(3-cyclopentyl-2-oxoimidazolin-1-yl)piperidin-1-yl)-3-((4-(1-(1-(2-(2,6-dioxopiperidin-3-yl)-1,3-dioxoisoindol-5-yl)azetidin-3-yl)-4-methylpiperidin-4-yl)phenyl)amino)pyrazin-2-carboxamide] displayed a DC50 of less than 1 nM.
The compound `CC1(c2ccc(Nc3nc(N4CCCC(N5CCN(C6COC6)C5=O)C4)cnc3C(N)=O)cc2)CCN(C2CN(c3ccc4c(c3)C(=O)N(C3CCC(=O)NC3=O)C4=O)C2)CC1` (centres unmarked) [Compound 002, 3-((4-(1-(1-(2-(2,6-dioxopiperidin-3-yl)-1,3-dioxoisoindol-5-yl)azetidine-3-yl)-4-methylpiperidin-4-yl)phenyl)amino)-5-(3-(3-(oxetan-3-yl)-2-oxoimidazolin-1-yl)piperidin-1-yl)pyrazin-2-carboxamide] returned a DC50 of less than 1 nM.
For `CC1(c2ccc(Nc3nc(N4CCCC(N5CCN(C6CCCCC6)C5=O)C4)cnc3C(N)=O)cc2)CCN(C2CN(c3ccc4c(c3)C(=O)N(C3CCC(=O)NC3=O)C4=O)C2)CC1` (centres unmarked) [Compound 003, 5-(3-(3-cyclohexyl-2-oxoimidazolin-1-yl)piperidin-1-yl)-3-((4-(1-(1-(2-(2,6-dioxopiperidin-3-yl)-1,3-dioxoisoindol-5-yl)azetidin-3-yl)-4-methylpiperidin-4-yl)phenyl)amino)pyrazin-2-carboxamide], the DC50 was less than 1 nM.
Next, `CC1(c2ccc(Nc3nc(N4CCCC(N5CCN(C6CCOCC6)C5=O)C4)cnc3C(N)=O)cc2)CCN(C2CN(c3ccc4c(c3)C(=O)N(C3CCC(=O)NC3=O)C4=O)C2)CC1` (centres unmarked) [Compound 004, 3-((4-(1-(1-(2-(2,6-dioxopiperidin-3-yl)-1,3-dioxoisoindol-5-yl)azetidine-3-yl)-4-methylpiperidin-4-yl)phenyl)amino)-5-(3-(2-oxo-3-(tetrahydro-2H-pyran-4-yl)imidazolin-1-yl)piperidin-1-yl)pyrazin-2-carboxamide]: less than 1 nM.
Next, `CC1(c2ccc(Nc3nc(N4CCCC(N5CC6CCCN6C5=O)C4)cnc3C(N)=O)cc2)CCN(C2CN(c3ccc4c(c3)C(=O)N(C3CCC(=O)NC3=O)C4=O)C2)CC1` (centres unmarked) [Compound 005, 3-((4-(1-(1-(2-(2,6-dioxopiperidin-3-yl)-1,3-dioxoisoindol-5-yl)azetidin-3-yl)-4-methylpiperidin-4-yl)phenyl)amino)-5-(3-(3-oxotetrahydro-1H-pyrrolo[1,2-c]imidazo 1-2(3H)-yl)piperidin-1-yl)pyrazin-2-carboxamide]: less than 1 nM; `CC1(c2ccc(Nc3nc(N4CCCC(N5CC6CCCCN6C5=O)C4)cnc3C(N)=O)cc2)CCN(C2CN(c3ccc4c(c3)C(=O)N(C3CCC(=O)NC3=O)C4=O)C2)CC1` (centres unmarked) [Compound 006, 3-((4-(1-(1-(2-(2,6-dioxopiperidin-3-yl)-1,3-dioxoisoindol-5-yl)azetidin-3-yl)-4-methylpiperidin-4-yl)phenyl)amino)-5-(3-(3-oxohexahydroimidazo[1,5-a]pyridin-2(3H)-yl)piperidin-1-yl)pyrazin-2-carboxamide]: less than 1 nM; `CCc1nc(C(N)=O)c(Nc2ccc(C3(C)CCN(C4CN(c5ccc6c(c5)C(=O)N(C5CCC(=O)NC5=O)C6=O)C4)CC3)cc2)nc1N1CCCC(N2CCN(C)C2=O)C1` (centres unmarked) [Compound 007]: less than 1 nM.
Compound `CN1C(=O)N(C2CCCN(c3cnc(C(N)=O)c(Nc4ccc(C5(C)CCN(C6CN(c7ccc8c(c7)C(=O)N(C7CCC(=O)NC7=O)C8=O)C6)CC5)cc4)n3)C2)C2CCCC21` (centres unmarked) [Compound 008, 3-((4-(1-(1-(2-(2,6-dioxopiperidin-3-yl)-1,3-dioxoisoindol-5-yl)azetidin-3-yl)-4-methylpiperidin-4-yl)phenyl)amino)-5-(3-(3-methyl-2-oxohexahydrocyclopenta[d]imidazol-1(2H)-yl)piperidin-1-yl)pyrazin-2-carboxamide] yielded a DC50 of less than 1 nM.
